# Laboratory results published in US20170209448A1, “TREATMENT REGIMENS USING MULTIPLE PHARMACEUTICAL AGENTS” (INTELLIKINE LLC, priority 2011, published 2017).
# Where two headings read alike, the source gives them in different places.
# Key:
# PC3 = PC3 tumor cell line proliferation assay; assay type: cell-based; details: Homo sapiens, PC-3
# Description: The assay is performed in a 96 well microtiter plate using Alamar Blue reduction. […] A compound disclosed herein is diluted in Tumor Cell Media and added in a 10 ul volume. […] A volume of 10 uL of Alamar Blue reagent is added to each well and plates are incubated for 3 hours at 37 C and 5% CO2.
# mTORC = target: T1, mTORC (Homo sapiens, UniProt P42345); experiment: mTORC in vitro IC50 (Table 2); assay type: biochemical
# T1 construct: purchased Invitrogen
# Description: The compounds described herein and any other mTor inhibitors known in the art can be tested against recombinant mTOR (Invitrogen) in an assay containing 50 mM HEPES, pH 7.5, 1 mM EGTA, 10 mM MgCl2, 2.5 mM, 0.01% Tween, 10 μM ATP (2.5 μLCi of μ-32P-ATP), and 3 μg/mL BSA. Rat recombinant PHAS-1/4EBP1 (Calbiochem; 2 mg/mL) is used as a substrate. Reactions are terminated by spotting onto nitrocellulose, which is washed with 1M NaCl/1% phosphoric acid (approximately 6 times, 5-10 minutes each). Sheets are dried and the transferred radioactivity quantitated by phosphorimaging.
# For instance, one can use Invitrogen's LanthaScreen™ Kinase assay to test the inhibitors of mTOR disclosed herein. This assay is a time resolved FRET platform that measures the phosphorylation of GFP labeled 4EBP1 by mTOR kinase. The kinase reaction is performed in a white 384 well microtitre plate. The total reaction volume is 20 ul per well and the reaction buffer composition is 50 mM HEPES pH7.5, 0.01% Polysorbate 20, 1 mM EGTA, 10 mM MnCl2, and 2 mM DTT. In the first step, each well receives 2 ul of test compound in 20% dimethylsulphoxide resulting in a 2% DMSO final concentration. Next, 8 ul of mTOR diluted in reaction buffer is added per well for a 60 ng/ml final concentration. To start the reaction, 10 ul of an ATP/GFP-4EBP1 mixture (diluted in reaction buffer) is added per well for a final concentration of 10 μM ATP and 0.5 μM GFP-4EBP1. The plate is sealed and incubated for 1 hour at room temperature. […] The plate is sealed, incubated for 1 hour at room temperature, and then read on a plate reader set up for LanthaScreen™ TR-FRET. Data is analyzed and IC50s are generated using GraphPad Prism 5.
# A498 xenografts = experiment: Tumor hypoxia by pimonidazole staining in A498 xenografts; assay type: in vivo, Mice
# Description: Mice bearing A498 xenografts were treated as shown below in Table 5 for 6 weeks or cycles (each cycle consisting of 7 days). During cycle 6, mice were sacrificed 2 hours after dosing. Pimonidazole hydrochloride, which binds to proteins in hypoxia conditions, was injected intraperitoneally 60 minutes before the tumor was harvested. Tumors were collected either at 2 hr of vehicle (Groups A, C, and D), Compound A (Groups B, C, and E) or sorafenib (Group D) dosing. Tumor tissues were formalin fixed and paraffin embedded. Tissue sections were stained with anti-pimonidazole antibody and visualized with DAB (dark brown).
# [1] = Table 2, read-out: PC3 proliferation
# T1 sequence (P42345 1360-2549 limits assumed): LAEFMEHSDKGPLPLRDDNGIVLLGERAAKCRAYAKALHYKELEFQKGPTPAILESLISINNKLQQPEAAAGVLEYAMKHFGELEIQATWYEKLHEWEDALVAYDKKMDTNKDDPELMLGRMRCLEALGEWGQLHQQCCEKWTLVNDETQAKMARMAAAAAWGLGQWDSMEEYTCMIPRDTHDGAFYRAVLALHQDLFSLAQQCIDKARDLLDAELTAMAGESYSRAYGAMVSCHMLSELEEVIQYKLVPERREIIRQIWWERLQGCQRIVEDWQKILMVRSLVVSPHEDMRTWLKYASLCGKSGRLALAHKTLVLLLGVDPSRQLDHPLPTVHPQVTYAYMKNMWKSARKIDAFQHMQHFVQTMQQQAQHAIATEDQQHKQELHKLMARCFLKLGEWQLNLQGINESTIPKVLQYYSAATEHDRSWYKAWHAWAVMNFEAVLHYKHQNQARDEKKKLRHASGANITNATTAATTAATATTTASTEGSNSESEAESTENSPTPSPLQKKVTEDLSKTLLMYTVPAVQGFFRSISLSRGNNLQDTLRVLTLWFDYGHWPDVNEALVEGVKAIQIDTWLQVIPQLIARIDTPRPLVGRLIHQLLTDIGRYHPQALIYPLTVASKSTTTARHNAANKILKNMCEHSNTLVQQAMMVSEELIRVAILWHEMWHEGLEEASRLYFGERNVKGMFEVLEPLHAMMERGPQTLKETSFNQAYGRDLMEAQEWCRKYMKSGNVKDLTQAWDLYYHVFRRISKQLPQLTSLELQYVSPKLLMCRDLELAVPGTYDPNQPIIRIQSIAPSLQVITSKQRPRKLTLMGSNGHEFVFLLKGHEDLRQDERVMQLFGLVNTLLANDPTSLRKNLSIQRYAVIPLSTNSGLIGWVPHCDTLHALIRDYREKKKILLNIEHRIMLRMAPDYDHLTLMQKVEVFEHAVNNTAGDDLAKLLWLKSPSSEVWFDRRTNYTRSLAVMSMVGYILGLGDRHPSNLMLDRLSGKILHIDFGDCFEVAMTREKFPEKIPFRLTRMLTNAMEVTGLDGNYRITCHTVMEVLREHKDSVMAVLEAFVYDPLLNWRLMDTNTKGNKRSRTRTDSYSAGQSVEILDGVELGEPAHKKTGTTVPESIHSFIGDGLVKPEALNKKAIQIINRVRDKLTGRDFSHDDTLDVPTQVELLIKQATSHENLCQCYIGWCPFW
Structure (SMILES),IC50 (mTORC) [nM],also measured
CC(=O)Nc1nc2cc(-c3nn(C(C)C)c4ncnc(N)c34)ccc2o1 [Compound 2],,"IC50 (PC3; Table 1, read-out: PC3 IC50): < 1000 nM"
CC(C)n1nc(-c2cc3cc(F)ccc3[nH]2)c2c(N)ncnc21 [Compound 3],< 500,
CC(C)n1nc(-c2ccc3nc(N)oc3c2)c2c(N)ncnc21 [Compound 4],,"IC50 (PC3; Table 1, read-out: PC3 IC50): < 10000 nM"
Nc1nc2cc(-c3nn(C4CCOCC4)c4ncnc(N)c34)ccc2o1 [Compound 5],,"IC50 (PC3; Table 1, read-out: PC3 IC50): < 100 nM"
Nc1nc2cc(-c3nn(C4CCC(N5CCOCC5)CC4)c4ncnc(N)c34)ccc2o1 (stereo not drawn) [Compound 6],,"IC50 (PC3; Table 1, read-out: PC3 IC50): < 1000 nM"
CC(=O)N1CCC(n2nc(-c3ccc4oc(N)nc4c3)c3c(N)ncnc32)CC1 [Compound 7],,"IC50 (PC3; Table 1, read-out: PC3 IC50): < 10000 nM"
CC(C)n1nc(-c2cc3ccccc3[nH]2)c2c(N)ncnc21 [Compound 7],< 100,
CC(C)n1cc(-c2ccc3oc(N)nc3c2)c2c(N)ncnc21 [Compound 8],,"IC50 (PC3; Table 1, read-out: PC3 IC50): < 100 nM"
CC(C)n1nc(-c2cc3c(Cl)cccc3[nH]2)c2c(N)ncnc21 [Compound 9],< 50,
Nc1nc2cc(-c3cn(C4CCOCC4)c4ncnc(N)c34)ccc2o1 [Compound 9],,"IC50 (PC3; Table 1, read-out: PC3 IC50): < 100 nM"
CC(C)n1nc(-c2ccc3onc(N)c3c2)c2c(N)ncnc21 [Compound 10],,"IC50 (PC3; Table 1, read-out: PC3 IC50): > 10000 nM"
COc1cccc2cc(-c3nn(C(C)C)c4ncnc(N)c34)[nH]c12 [Compound 10],< 25,
CC(=O)Nc1noc2cc(-c3nn(C(C)C)c4ncnc(N)c34)ccc12 [Compound 11],,"IC50 (PC3; Table 1, read-out: PC3 IC50): > 10000 nM"
CC(C)n1nc(-c2ccc3c(N)noc3c2)c2c(N)ncnc21 [Compound 12],,"IC50 (PC3; Table 1, read-out: PC3 IC50): > 10000 nM"
Nc1ncnc2c1c(-c1cc3cc(O)ccc3[nH]1)nn2C1CCCC1 [Compound 12],< 10,
CC(C)n1nc(-c2cc3ccc(O)cc3[nH]2)c2c(N)ncnc21 [Compound 21],< 50,
CC(C)n1nc(-c2cc3ccc(C#N)cc3[nH]2)c2c(N)ncnc21 [Compound 24],,IC50 (PC3; [1]): > 500 nM
CC(C)n1nc(-c2cc3ccc(C(N)=O)cc3[nH]2)c2c(N)ncnc21 [Compound 25],< 500,IC50 (PC3; [1]): > 500 nM
Nc1ncnc2c1c(-c1cc3cc(O)ccc3[nH]1)nn2C1CCCCC1 [Compound 26],< 10,
Nc1ncnc2c1c(-c1cc3cc(O)ccc3[nH]1)nn2C1CCC1 [Compound 27],< 25,
CCOC(=O)Cn1nc(-c2cc3cc(O)ccc3[nH]2)c2c(N)ncnc21 [Compound 28],< 500,
CC(=O)N1CCC(n2nc(-c3cc4cc(O)ccc4[nH]3)c3c(N)ncnc32)CC1 [Compound 30],< 25,
Nc1ncnc2c1c(-c1cc3cc(O)ccc3[nH]1)nn2C1CCN(C(=O)C2CC2)CC1 [Compound 31],< 25,

Structure (SMILES),IC50 (mTORC) [nM],also measured
CC(C)n1nc(-c2cc3cc(O)c(Cl)cc3[nH]2)c2c(N)ncnc21 [Compound 32],< 500,
Nc1ncnc2c1c(-c1cc3cc(O)ccc3[nH]1)nn2CCN1CCOCC1 [Compound 33],< 500,
Nc1ncnc2c1c(-c1cc3cccc(O)c3[nH]1)nn2C1CCCC1 [Compound 36],< 10,
Nc1ncnc2c1c(-c1cc3cc(O)ccc3[nH]1)nn2Cc1cccnc1 [Compound 38],< 500,
CC(C)n1nc(-c2cc3c(Cl)ccc(O)c3[nH]2)c2c(N)ncnc21 [Compound 39],< 10,
COCCn1nc(-c2cc3cc(O)ccc3[nH]2)c2c(N)ncnc21 [Compound 40],< 100,
Nc1ncnc2c1c(-c1cc3cccc(O)c3[nH]1)nn2C1CCN(C(=O)C2CC2)CC1 [Compound 41],< 10,
Cc1nccn1CCn1nc(-c2cc3cc(O)ccc3[nH]2)c2c(N)ncnc21 [Compound 44],< 100,
Nc1ncnc2c1c(-c1cc3c(Cl)cccc3[nH]1)nn2C1CCOCC1 [Compound 48],< 50,
Nc1ncnc2c1c(-c1cc3cc(O)ccc3[nH]1)nn2C1CC(N2CCOCC2)C1 (stereo not drawn) [Compound 49],< 10,
CC(C)n1nc(-c2cc3cccc(Cl)c3[nH]2)c2c(N)ncnc21 [Compound 50],< 50,
Nc1ncnc2c1c(-c1cc3cccc(Cl)c3[nH]1)nn2C1CCOCC1 [Compound 51],< 50,
CN1CCN(C2CC(n3nc(-c4cc5cc(O)ccc5[nH]4)c4c(N)ncnc43)C2)CC1 (stereo not drawn) [Compound 52],< 500,
Nc1ncnc2c1c(-c1cc3cc(O)ccc3[nH]1)nn2C1CC(=O)C1 [Compound 53],< 100,
Nc1ncnc2c1c(-c1cc3cc(O)ccc3[nH]1)nn2C1CC(O)C1 (stereo not drawn) [Compound 54],< 25,
CC(C)N1CCC(n2nc(-c3cc4cc(O)ccc4[nH]3)c3c(N)ncnc32)CC1 [Compound 55],< 500,
Nc1ncnc2c1c(-c1cc3cc(O)ccc3[nH]1)nn2C1CCC(N2CCOCC2)CC1 (stereo not drawn) [Compound 57],< 25,
Nc1ncnc2c1c(-c1cc3ccc(O)cc3[nH]1)nn2C1CCOCC1 [Compound 60],< 100,
COc1ccc(Cl)c2cc(-c3nn(C4CCOCC4)c4ncnc(N)c34)[nH]c12 [Compound 61],< 25,
CC(C)N1CCC(n2nc(-c3cc4cccc(O)c4[nH]3)c3c(N)ncnc32)CC1 [Compound 64],< 25,
CC(=O)N1CCC(n2nc(-c3cc4ccc(O)cc4[nH]3)c3c(N)ncnc32)CC1 [Compound 65],< 10,
CC(C)N1CCC(n2nc(-c3cc4c(Cl)ccc(O)c4[nH]3)c3c(N)ncnc32)CC1 [Compound 71],< 100,
"CNC(=O)c1cc(Oc2ccc(NC(=O)Nc3ccc(Cl)c(C(F)(F)F)c3)cc2)ccn1 [Sorafenib, sorafenib]",,"tumor hypoxia (anti-pimonidazole staining) (A498 xenografts; 6 cycles, doses and schedules of Table 5 (Compound A 1 mg/kg PO QD or 3QW; Sorafenib 40 mg/kg IP 4QW; alternating 3QW/4QW), tumor 2 hr after dosing): caused necrosis and cells surrounding the necrosis area appear pimonidazole positive; tumor hypoxia (anti-pimonidazole staining), off phase (A498 xenografts; intermittent dosing (Table 5), off phase of the cycle): pimonidazole staining intensity was reduced"
